Results taken from patent US20180369203A1, “METHODS OF TREATING CANCER BY ADMINISTERING A MEK INHIBITOR IN COMBINATION WITH A PROTEASOME INHIBITOR” (The Jackson Laboratory, priority 2015, published 2018).

Test system: A2058 cells
Assay: A2058 s.c. melanoma xenograft in NOD/SCID mice
Format: in vivo
Procedure: FIGS. 6A-N show combined MEK and proteasome inhibition exerts potent tumor-suppressive effects. (A) After treatments with 20 nM AZD6244, 100 nM Bortezomib, or both for 24 hr, viable cells were quantitated by CellTiter® Blue (mean±SD, n=6, ANOVA). (B and C) 1×10^6 A2058 cells were s.c. injected into NOD/SCID mice. After 7 days, mice were treated with DMSO, 5 mg/Kg AZD6244, 0.5 mg/Kg Bortezomib, or the combination via i.p. injection three times a week. Tumor volumes were measured using a caliper weekly (mean±SEM, ANOVA). Tumor growth curves were fitted to exponential growth models to derive tumor-doubling time (DT). Kaplan-Meier survival curve was plotted for each group (Log-rank test). (D) Proteins were detected by immunoblotting, 3 tumors per group. (E) Tumor lysates were used to quantitate AOs, 5 tumors per group (mean±SD, n=3, ANOVA). (F) Tumor lysates were used to seed Aβ1-42 peptides, 5 tumors per group (mean±SD, n=3, ANOVA). (G-H) Tumor sections were stained with CR, 5 tumors per group. Ten random fields were taken for each section. Scale bar: 50 μm. Total CR fluorescence in each field was quantitated using ImageJ and normalized against total nuclei (median, n=50, ANOVA). (I) Following CR staining, tumor sections were visualized under polarized light microscopy. Scale bar: 50 μm. (J) Following staining with AF-specific antibodies (OC), sections of tumors receiving combined treatment were further stained with CR. Scale bar: 50 μm. […] Body weights were monitored weekly (mean±SD, n=10, ANOVA). […]
FIG. 13A-J illustrates combined MEK and proteasome inhibition disrupts proteostasis and impedes in vivo tumor growth. […] Body weights were recorded before xenografting and at sacrifice. […] Quantitation of immunoblotting results in FIG. 6D (mean±SD, n=3, ANOVA). […] Lys48-specific protein ubiquitination and caspase 3 cleavage were measured by immunoblotting in 3 spleens per group.
A2058 cells were s.c. injected into the left flanks of 9-week-old female NOD.CB17-Prkdc/J (NOD/SCID) mice (The Jackson Laboratory). […] Tumor volumes were calculated following the formula 4/3πR^3. […]

CC(C)C[C@H](NC(=O)[C@H](Cc1ccccc1)NC(=O)c1cnccn1)B(O)O [Bortezomib, bortezomib]
growth of xenografted melanomas (5 mg/Kg AZD6244, 0.5 mg/Kg Bortezomib or combination, i.p. three times a week): no significant impacts
HSF1 Ser326 phosphorylation and HSP expression in tumors (stress response) (tumor immunoblotting): induced
ubiquitination in tumors (tumor immunoblotting, 3 tumors per group): slightly elevated
